What is called IC50 is the concentration at which inhibition is half-maximal.

The nature of data set [1]: Hemolytic activity in erythrocytes (unknown origin) at 100 uM after 3 hrs by spectrophotometric analysis. In kind it is ADME, cell-based, Erythrocyte. The conditions noted are these: read-out: Activity.
Data set [2] relates to NCI-H929. Description: Induction of apoptosis in human NCI-H929 cells assessed as viable cells at 42 nM after 48 hrs in presence of bortezomib by Annexin-V/propidium iodide staining based flow cytometric method (reference value: 82.6%). In kind it is functional. The conditions noted are these: NCI-H929, 48 h, read-out: Activity. For orientation: In flow cytometry, cells or beads pass a laser one at a time.

The target in data set [3] is T1, Prostaglandin G/H synthase 2 (Homo sapiens, UniProt P35354).
T1 sequence (P35354 whole entry): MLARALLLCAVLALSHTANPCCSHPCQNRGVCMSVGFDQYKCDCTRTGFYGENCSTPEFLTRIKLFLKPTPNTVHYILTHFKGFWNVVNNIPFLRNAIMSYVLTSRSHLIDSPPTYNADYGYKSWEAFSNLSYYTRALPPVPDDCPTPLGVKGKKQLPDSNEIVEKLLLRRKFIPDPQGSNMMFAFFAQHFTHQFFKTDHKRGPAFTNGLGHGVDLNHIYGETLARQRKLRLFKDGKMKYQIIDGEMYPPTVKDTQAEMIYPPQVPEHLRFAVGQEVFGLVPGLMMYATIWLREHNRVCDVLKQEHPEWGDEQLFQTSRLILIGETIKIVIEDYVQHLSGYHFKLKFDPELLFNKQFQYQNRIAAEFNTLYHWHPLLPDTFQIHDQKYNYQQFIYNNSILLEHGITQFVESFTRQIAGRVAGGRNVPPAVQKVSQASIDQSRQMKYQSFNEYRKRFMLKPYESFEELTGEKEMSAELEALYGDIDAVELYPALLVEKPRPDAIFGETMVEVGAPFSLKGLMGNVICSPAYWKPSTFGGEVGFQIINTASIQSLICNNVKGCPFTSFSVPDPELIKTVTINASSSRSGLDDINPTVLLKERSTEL
Put plainly: Inhibition of human COX2 using arachidonic acid as substrate by colorimetric assay.

Data set [4] has as its system NCI-H929. Description: Induction of apoptosis in human NCI-H929 cells assessed as necrotic cells at 42 nM after 48 hrs by Annexin-V/propidium iodide staining based flow cytometric method (reference value: 0.0034%). In kind it is functional.
In data set [5] the test system is RPMI-8226. Description: Induction of apoptosis in human RPMI8226 cells assessed as late apoptotic cells at 42 nM after 48 hrs in presence of bortezomib by Annexin-V/propidium iodide staining based flow cytometric method (reference value: 0.21%). It is filed as functional.
For data set [6], the system named is NCI-H929. Description: Induction of apoptosis in human NCI-H929 cells assessed as necrotic cells at 42 nM after 48 hrs in presence of bortezomib by Annexin-V/propidium iodide staining based flow cytometric method (reference value: 0.0034%). In kind it is functional.
The test system of data set [7] is NCI-H929. Put plainly: Cell cycle arrest in human NCI-H929 cells assessed as accumulation at G0/G1 phase at 42 nM in presence of bortezomib after 48 hrs by propidium iodide/RNase staining based flow cytometric method relative to bortezomib alone. It is filed as functional.
For data set [8], the system named is RPMI-8226. Put plainly: Induction of apoptosis in human RPMI8226 cells assessed as necrotic cells at 42 nM after 48 hrs in presence of bortezomib by Annexin-V/propidium iodide staining based flow cytometric method (reference value: 0.090%). It is filed as functional.
Data set [9] deals with Plasma. Put plainly: Anticoagulant activity in human platelet poor plasma assessed as prothrombin time at 100 uM incubated for 15 mins at room temperature and subsequent incubation for 2 mins at 37 degreeC followed by PBS addition and measured after 3 mins for every secs in presence of calcium thromboplastin. It is filed as functional.
Data set [10] relates to NCI-H929. Put plainly: Induction of apoptosis in human NCI-H929 cells assessed as late apoptotic cells at 42 nM after 48 hrs by Annexin-V/propidium iodide staining based flow cytometric method (reference value: 0.23%). It is filed as functional.
Data set [11] has as its system RPMI-8226. Put plainly: Cytotoxicity against human RPMI8226 cells assessed as reduction in cell viability at 1.7 uM after 48 hrs by CCK8 assay relative to control. In kind it is functional. A general note: Tetrazolium assays rely on reduction of a dye to a coloured formazan, in cell work by metabolically active cells.
Another data set relates to Platelet. Put plainly: Antiplatelet activity in human platelet rich plasma assessed as inhibition of arachidonic acid-induced platelet aggregation preincubated for 2 mins followed by arachidonic acid addition by turbidimetric method. It is filed as functional, cell-based.
In data set [12] the test system is RPMI-8226. Put plainly: Induction of apoptosis in human RPMI8226 cells assessed as viable cells at 42 nM after 48 hrs in presence of bortezomib by Annexin-V/propidium iodide staining based flow cytometric method (reference value: 98.7%). It is filed as functional. As to conditions: RPMI-8226, 48 h, read-out: Activity.
Data set [13] has as its system NCI-H929. Put plainly: Induction of apoptosis in human NCI-H929 cells assessed as viable cells at 42 nM after 48 hrs by Annexin-V/propidium iodide staining based flow cytometric method (reference value: 82.6%). In kind it is functional. The conditions noted are these: NCI-H929, 48 h, read-out: Activity.
The test system of data set [14] is RPMI-8226. Description: Cell cycle arrest in human RPMI8226 cells assessed as accumulation at S phase at 42 nM after 48 hrs by propidium iodide/RNase staining based flow cytometric method. In kind it is functional.
For data set [15], the system named is NCI-H929. Description: Cell cycle arrest in human NCI-H929 cells assessed as accumulation at S phase at 42 nM in presence of bortezomib after 48 hrs by propidium iodide/RNase staining based flow cytometric method relative to bortezomib alone. In kind it is functional.
The test system of data set [16] is NCI-H929. Put plainly: Cytotoxicity against human NCI-H929 cells assessed as reduction in cell viability at 42 nM after 48 hrs by CCK8 assay. In kind it is functional, cell-based.
Data set [17] relates to NCI-H929. Put plainly: Induction of apoptosis in human NCI-H929 cells assessed as early apoptotic cells at 42 nM after 48 hrs in presence of bortezomib by Annexin-V/propidium iodide staining based flow cytometric method (reference value: 17.1%). It is filed as functional.
A short description of data set [18]: Genotoxicity in Escherichia coli PQ35 at 500 uM after overnight incubation by SOS chromotest. It is filed as toxicity.
In data set [19] the test system is RPMI-8226. Description: Potentiation of bortezomib-induced cytotoxicity against human RPMI8226 cells assessed as reduction in cell viability at 42 nM after 48 hrs in presence of bortezomib by CCK8 assay. In kind it is functional.
Data set [20] concerns Plasma. Put plainly: Anticoagulant activity in human platelet poor plasma assessed as activated partial thromboplastin time at 100 uM incubated for 15 mins at room temperature and subsequent incubation for 2 mins at 37 degreeC followed by cephalin addition and measured after 2 mins for every secs in presence of CaCl2. In kind it is functional.

Calls of active or inactive are those of the source. The calls are words filed in the database; no cut-off is given here. A value given as a limit tells only on which side of the number the result lay.

Consider `C=Cc1onc(-c2ccc(OC)cc2)c1-c1ccc(OC)cc1`, for which the hemolysis at 3 h, 100 µM in data set [1] stood at 0%. In addition, the viability at 0.042 µM in the data set with NCI-H929 [2] stood at 39.2%; in the data set with RPMI-8226 [12], 89.9%; in the data set on NCI-H929 [13] it was 83%. Further, the IC50 in data set [3] is more than 50000 nM; with Platelet, 630 nM. Further, the Activity in the data set on NCI-H929 [4] was determined as 0.012%; in the data set on RPMI-8226 [5], 0.37%; in the data set on NCI-H929 [6], 0%; in the data set with NCI-H929 [7], 15%; in the data set on RPMI-8226 [8], 0.01%; in the data set with NCI-H929 [10], 0.11%. In addition, the Activity in the data set on RPMI-8226 [11] is recorded as 4%; in the data set on NCI-H929 [15], 15%; with NCI-H929 [17], 60.6%; in data set [18], “Non-Toxic”; in the data set with RPMI-8226 [19], 66%. In addition, in the data set with Plasma [9], the PT came to 13.7 s. For the same molecule, the result in the data set on RPMI-8226 [14] and in the data set with NCI-H929 [16] was inactive. Also, the APTT in the data set with Plasma [20] is 51.2 s.

The record behind these values is ChEMBL document CHEMBL4422618, “Translational impact of novel widely pharmacological characterized mofezolac-derived COX-1 inhibitors combined with bortezomib on human multiple myeloma cell lines viability” (Eur J Med Chem, 2019).
